The text below walks through data of patent US5104866A, “Water-soluble antibiotic composition and water-soluble salts of cephem compounds” (Fujisawa Pharmaceutical Company, Ltd., priority 1987, dated 1992).

A short description of series [1]: Dissolution test: velocity of dissolution of test samples after addition of distilled water at ambient temperature. As to conditions: reference sample without carbonic acid salt. Format: physicochemical. Here is the method: As a comparison, the following reference samples were also tested.
The velosity of dissolution of the test samples were observed after addition of distilled water into said test samples at ambient temperature,respectively.

The next series relates to P. aeruginosa 26. As to the kind of experiment: In vitro antibacterial activity, two-fold agar-plate dilution method (MIC). Format: cell-based. As to conditions: Pseudomonas aeruginosa, HI-agar, 10^6 viable cells per ml, 37° C., 20 hours, read-out: minimal inhibitory concentration (MIC). Here is the method:
Sodium 7-[2-allyloxyimino-2-(5-carboxylatoamino-1,2,4-thiadiazol-3-yl)acetamido]- 3-(1-pyridinio)methyl-3-cephem-4-carboxylate (syn isomer).
In vitro antibacterial activity was determined by the two-fold agar-plate dilution method as described below.

Structures are written as SMILES. Counter-ions that a name gives are not always drawn.

With `C=CCO/N=C(\C(=O)NC1C(=O)N2C(C(=O)[O-])=C(C[n+]3ccccc3)CSC12)c1nsc(N)n1` (stereo not drawn) [Reference Sample (2), 7-[2-allyloxyimino-2-(5-amino-1,2,4-thiadiazol-3-yl)acetamido]-3-(1-pyridinio)methyl-3-cephem-4-carboxylate hydrochloride (syn isomer)], the “Maximum concentration of this sample dissolved in water” value (shortened to “Maximum concentration”) in series [1] is listed as 8.28 % (w/v).

Turning to `C=CCO/N=C(\C(=O)NC1C(=O)N2C(C(=O)[O-])=C(C[n+]3ccccc3)CSC12)c1nsc(N)n1` (stereo not drawn) [Reference Sample (1), 7-[2-allyloxyimino-2-(5-amino-1,2,4-thiadiazol-3-yl)acetamido]-3-(1-pyridinio)methyl-3-cephem-4-carboxylate (syn isomer)], the “Maximum concentration” value in series [1] is given as 4.07 % (w/v).

For `CO/N=C(\C(=O)NC1C(=O)N2C(C(=O)[O-])=C(C[n+]3ccccc3)CSC12)c1nsc(N)n1` (stereo not drawn) [Reference Sample (4), 7-[2-(5-amino-1,2,4-thiadiazol-3-yl)-2-methoxyiminoacetamido]-3-(1-pyridinio)methyl-3-cephem-4-carboxylate sulfate (syn isomer)], the “Maximum concentration” value in series [1] is on record as 10 % (w/v). Consider `C=CCO/N=C(\C(=O)NC1C(=O)N2C(C(=O)[O-])=C(C[n+]3ccccc3)CSC12)c1nsc(NC(=O)O)n1` (stereo not drawn) [Test salt, Sodium 7-[2-allyloxyimino-2-(5-carboxylatoamino-1,2,4-thiadiazol-3-yl)acetamido]-3-(1-pyridinio)methyl-3-cephem-4-carboxylate (syn isomer)], for which the MIC in the series with P. aeruginosa 26 was 0.39 µg/mL.

As to `CO/N=C(\C(=O)NC1C(=O)N2C(C(=O)[O-])=C(C[n+]3ccccc3)CSC12)c1nsc(N)n1` (stereo not drawn) [Reference Sample (3), 7-[2-(5-amino-1,2,4-thiadiazol-3-yl)-2-methoxyiminoacetamido]-3-(1-pyridinio)methyl-3-cephem-4-carboxylate (syn isomer)], in series [1], the “Maximum concentration” value is given as 2 % (w/v).
